Results: PMC13586308, “Cell type–selective targeting by heterobifunctional protein binders via in-cell enrichment” (Nature Communications, 2026)
Read-outs that look alike come from different tables or passages of the source.

How the values were obtained:
[1] = system: BRD4 43-463 Y390A; test: competitive FP assay, BRD4 tandem construct Y390A; type: binding
[2] = system: BRD4 43-463 Y97A; test: competitive FP assay, BRD4 tandem construct Y97A; type: binding
[3] = biological target: T1, BRD2BD1 (Homo sapiens, UniProt P25440); test: competitive FP assay, BRD2 BD1 -/+ FKBP12; type: binding
T1 construct: to the isolated BD1 and BD2 domains of BRD2, BRD3 and BRD4
T1 sequence (P25440 74-180 limits assumed): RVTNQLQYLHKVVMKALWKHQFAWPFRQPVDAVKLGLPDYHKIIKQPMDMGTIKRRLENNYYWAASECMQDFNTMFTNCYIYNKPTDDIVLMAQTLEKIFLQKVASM

[4] = biological target: BRD2BD2 (Homo sapiens, UniProt P25440); test: competitive FP assay, BRD2 BD2 -/+ FKBP12; type: binding
Chain of BRD2BD2 (P25440 344-453 limits assumed): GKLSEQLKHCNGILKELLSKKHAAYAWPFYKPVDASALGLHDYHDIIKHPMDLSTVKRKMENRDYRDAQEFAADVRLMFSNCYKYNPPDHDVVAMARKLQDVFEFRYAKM

[5] = biological target: T2, BRD3BD1 (Homo sapiens, UniProt Q15059); test: competitive FP assay, BRD3 BD1 -/+ FKBP12; type: binding
T2 construct: to the isolated BD1 and BD2 domains of BRD2, BRD3 and BRD4
T2 sequence (Q15059 34-140 limits assumed): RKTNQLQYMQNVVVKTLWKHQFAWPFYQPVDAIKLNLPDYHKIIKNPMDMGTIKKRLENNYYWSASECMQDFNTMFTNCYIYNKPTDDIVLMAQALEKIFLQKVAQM

[6] = biological target: T3, BRD3BD2 (Homo sapiens, UniProt Q15059); test: competitive FP assay, BRD3 BD2 -/+ FKBP12; type: binding
T3 construct: to the isolated BD1 and BD2 domains of BRD2, BRD3 and BRD4
T3 sequence (Q15059 306-415 limits assumed): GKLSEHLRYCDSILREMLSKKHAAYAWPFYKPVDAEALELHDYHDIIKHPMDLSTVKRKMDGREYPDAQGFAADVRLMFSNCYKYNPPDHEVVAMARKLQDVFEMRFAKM

[7] = biological target: T4, FKBP12 (Homo sapiens, UniProt P62942); test: competitive fluorescence polarization assay, binding to FKBP12; settings: competitive FP assay
T4 sequence (P62942 whole entry): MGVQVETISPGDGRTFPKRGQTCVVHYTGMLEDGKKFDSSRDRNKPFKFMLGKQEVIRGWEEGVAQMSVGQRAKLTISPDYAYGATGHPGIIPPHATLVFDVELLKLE

[8] = biological target: T5, BRD4^BD1 (Homo sapiens, UniProt O60885); test: competitive fluorescence polarization assay, BRD4 BD1 -/+ presenter protein; type: binding; settings: for α BRD4^BD1 (binding cooperativity factor): ratio of binding in absence or presence of FKBP12
T5 construct: to the isolated BD1 and BD2 domains of BRD2, BRD3 and BRD4

[9] = biological target: T6, BRD4^BD2 (Homo sapiens, UniProt O60885); test: competitive fluorescence polarization assay, BRD4 BD2 -/+ presenter protein; type: binding; settings: for α BRD4^BD2 (binding cooperativity factor): ratio of binding in absence or presence of FKBP12
T6 construct: to the isolated BD1 and BD2 domains of BRD2, BRD3 and BRD4

[10] = biological target: T4, FKBP12; test: NanoBRET FKBP12 in intact HEK293 cells; type: cell-based
[11] = biological target: T7, BRD4 (Homo sapiens, UniProt O60885); test: NanoBRET BRD4, transient BRD4-NanoLuc in HEK293T cells; type: cell-based; settings: intact HEK293 cells
T7 construct: full-length BRD4 fused to NanoLuc at N terminus; expressed in transfected cells; host or cells: HEK293T
Description: The NanoBRET assay was performed as described previously[26],[39]. To study BRD4 engagement, we employed two models: cells stably expressing BRD4-NanoLuc and cells with transient BRD4-NanoLuc expression. For stable cell lines, the coding sequence of human BRD4 (Isoform B) was fused in-frame to NanoLuc luciferase under the control of the human ubiquitin C (UbC) promoter, with left and right homology arms targeting the AAVS1 locus in intron 1 of the PPP1R12C gene to facilitate genomic integration. PC3 prostate cancer cells were transfected with this construct and vectors expressing Cas9 and an sgRNA targeting the AAVS1 locus using Lipofectamine 3000 (Invitrogen). Successful integrands were selected with blasticidin. Expression of the fusion protein was confirmed by western blot. For transient experiments, full-length BRD4 fused to NanoLuc at N terminus, was cloned into an expression plasmid and transfected into HEK293T cells using FuGENE HD (Promega, E2312), with protein expression allowed for 20 h. Serially diluted inhibitors and BRD Tracer-02 (Promega, TracerDB ID: T000022) at the Tracer KD concentration (from TracerDB)[40] were dispensed into white 384-well plates (Greiner 781207) using an ECHO 550 acoustic dispenser (Labcyte). The cells were trypsinized, resuspended in Opti-MEM without phenol red (Life Technologies), and seeded at 2 × 10^5 cells/mL. After equilibration for 2 h at 37 °C/5% CO₂ following compound treatment, the NanoBRET® NanoGlo Substrate + Extracellular NanoLuc® Inhibitor (Promega, N2162) was added according to the manufacturer’s protocol, and filtered luminescence was measured on a PHERAstar plate reader (BMG Labtech) using a donor (450 nm BP) and acceptor (610 nm LP) filter pair. Competitive displacement data were analyzed using GraphPad Prism 9 with a normalized 3-parameter curve fit: Y = 100/(1 + 10^(X − log IC₅₀)). For BRET measurements after FKBP12 knockdown in stably expressing BRD4 Nano-Luc reporter cell line, 10 nL/per well of the FKBP12 PROTAC was pipetted to each well using Labcyte to achieve the final concentration of 200 nM and the plated cells were incubated over-night at 37 °C and 5% CO2. BRET measurements were performed as outlined above.

[12] = system: MYC mRNA; test: quantitative RT-PCR of MYC mRNA, MV4-11; type: cell-based, human; settings: MV4-11
[13] = absence of FKBP12, 2 nM JQ1-FL tracer, read-out: Binding to BRD4^BD2 - FKBP12 Kd
[14] = absence of FKBP12, 2 nM JQ1-FL tracer, read-out: Binding to BRD4^BD1 - FKBP12 Kd
[15] = presence of 15 µM FKBP12, read-out: Binding to BRD4^BD1 + FKBP12 Kd (converted)
[16] = presence of 15 µM FKBP12, read-out: Binding to BRD4^BD2 + FKBP12 Kd (converted)

Structure (SMILES) | α BRD4 43-463 Y390A [1] | α BRD4 43-463 Y97A [2] | α BRD2BD1 [3] | α BRD2BD2 [4] | α BRD3BD1 [5] | α BRD3BD2 [6] | Kd [7] [nM] | α BRD4^BD1 (binding cooperativity factor) [8] | Kd [9, 13] [nM] | α BRD4^BD2 (binding cooperativity factor) [9] | IC50 [10] [nM] | IC50 [11] [nM] | Kd [8, 14] [nM] | Kd [8, 15] [nM] | Kd [9, 16] [nM] | effect of CD36 inhibitor on myc repression upon a1dj treatment [12]
Cc1sc2c(c1C)C(c1ccc(Cl)cc1)=N[C@@H](CC(=O)OC(C)(C)C)c1nnc(C)n1-2 [JQ1, (+)-JQ1, reference compound] | 1.0 | 1.2 | 1.0 | 1.0 | 1.0 | 1.0 |  |  |  |  |  |  |  |  |  | 
C=CC1CN(Cc2cn(CCOCCNC(=O)CC3N=C(c4ccc(Cl)cc4)c4c(sc(C)c4C)-n4c(C)nnc43)nn2)C(=O)C2CCCC1N2S(=O)(=O)c1cc(Cl)cc(Cl)c1 (stereo not shown) [a1i] |  |  |  |  |  |  | 10 | 0.5 | 910 ± 160 | 0.3 | 200 | 560 |  |  |  | 
Cc1sc2c(c1C)C(c1ccc(Cl)cc1)=NC(CC(=O)N1CCC(N3CCC(Cn4cc(C5CN(Cc6ccccn6)C(=O)C6CCCC5N6S(=O)(=O)c5cc(Cl)cc(Cl)c5)nn4)CC3)CC1)c1nnc(C)n1-2 (stereo not shown) [a10c] |  |  |  |  |  |  | 0.3 | 0.1 | 170 ± 30 |  | 288 | 497 | 120 ± 30 | 900 ± 100 |  | 
C=CC1CN(Cc2cn(CCOCCOCCNC(=O)CC3N=C(c4ccc(Cl)cc4)c4c(sc(C)c4C)-n4c(C)nnc43)nn2)C(=O)C2CCCC1N2S(=O)(=O)c1cc(Cl)cc(Cl)c1 (stereo not shown) [a2i] |  |  |  |  |  |  | 8.7 | 1.1 | 140 ± 30 | 0.1 | 180 | 790 | 330 ± 40 | 290 ± 30 | 960 ± 120 | 
C=C[C@H]1CN(Cc2ccccn2)C(=O)[C@@H]2CCC[C@H]1N2S(=O)(=O)c1ccc(-c2cn(CCOCCOCCNC(=O)C[C@@H]3N=C(c4ccc(Cl)cc4)c4c(sc(C)c4C)-n4c(C)nnc43)nn2)c(Cl)c1 [a2h] |  |  |  |  |  |  | 2.4 |  | 46 ± 10 |  | 170 | 300 | 210 ± 18 | 2400 ± 200 | 1300 ± 200 | 
Cc1sc2c(c1C)C(c1ccc(Cl)cc1)=NC(CC(=O)NCCOCCn1cc(COC(C)C3CN(Cc4ccccn4)C(=O)C4CCCC3N4S(=O)(=O)c3cc(Cl)cc(Cl)c3)nn1)c1nnc(C)n1-2 (stereo not shown) [a1e] |  |  |  |  |  |  | 8.9 | 1.5 | 33 ± 9 | 0.6 | 103 | 390 | 70 ± 10 | 48 ± 7 | 60 ± 10 | 
C=CC1CN(Cc2ccccn2)C(=O)C2CCCC1N2S(=O)(=O)c1cc(Cl)cc(-c2cn(CCOCCNC(=O)CC3N=C(c4ccc(Cl)cc4)c4c(sc(C)c4C)-n4c(C)nnc43)nn2)c1 (stereo not shown) [a1g] |  |  |  |  |  |  | 46 |  |  | 0.2 | 230 | 1500 |  | > 20000 |  | 
Cc1sc2c(c1C)C(c1ccc(Cl)cc1)=NC(CC(=O)N1CCN(CCCCn3cc(COCC4CN(Cc5ccccn5)C(=O)C5CCCC4N5S(=O)(=O)c4cc(Cl)cc(Cl)c4)nn3)CC1)c1nnc(C)n1-2 (stereo not shown) [a6d] |  |  |  |  |  |  | 0.9 | 1.5 |  | 1.8 | 141 | 787 | 600 ± 80 | 400 ± 50 | 800 ± 200 | 
Cc1sc2c(c1C)C(c1ccc(Cl)cc1)=NC(CC(=O)N1CCC(CN3CCC(Cn4cc(C5CN(Cc6ccccn6)C(=O)C6CCCC5N6S(=O)(=O)c5cc(Cl)cc(Cl)c5)nn4)CC3)CC1)c1nnc(C)n1-2 (stereo not shown) [a8c] |  |  |  |  |  |  | 2.1 | 1.1 | 190 ± 30 | 1.2 | 178 | 541 | 170 ± 20 | 150 ± 20 | 160 ± 30 | 
CCCCCCCC/C=C\CCCCCCCC(=O)ON1C(=O)CC(S(=O)(=O)O)C1=O (stereo not shown) [sulfosuccinimidyl oleate (SSO), sulfosuccinimidyl oleate, reference compound] |  |  |  |  |  |  |  |  |  |  |  |  |  |  |  | did not observe any effect
Cc1sc2c(c1C)C(c1ccc(Cl)cc1)=NC(CC(=O)N1CCC(CN3CCC(n4cc(COCC5CN(Cc6ccccn6)C(=O)C6CCCC5N6S(=O)(=O)c5cc(Cl)cc(Cl)c5)nn4)CC3)CC1)c1nnc(C)n1-2 (stereo not shown) [a7d] |  |  |  |  |  |  | 2.3 | 2.2 | 700 ± 100 | 1 | 209 | 1110 | 680 ± 70 | 310 ± 50 | 660 ± 90 | 
